{"source": "patent US20210292438A1", "about": "“CONDITIONAL INTERNALIZATION OF PEGYLATED AGENTS BY PRETARGETING BI-SPECIFIC PEG-BINDING ANTIBODIES FOR DIAGNOSIS AND THERAPY” (ACADEMIA SINICA, priority 2017, published 2021)", "key": {"[1]": {"tested_on": "human MDA-MB-468 TNBC or MDA-MB-231 TNBC xenografts", "assay": "Anti-tumor activity of pre-targeted PEG engager in xenografts", "format": "in vivo, SCID mice", "conditions": "i.v. once a week for 4 weeks; engager 5 h before drug; free doxorubicin 3 mg/kg, Doxisome 1 mg/kg", "description": "Anti-tumor activity of PEG engager was tested in mice bearing human MDA-MB-468 TNBC or MDA-MB-231 TNBC xenografts following the procedure below.\nGroups of severe combined immunodeficiency (SCID) mice bearing 44.7±10.7 mm^3 MDA-MB-231 (n=6) or 84.3±4.3 mm^3 subcutaneous MDA-MB-468 (n=8) tumors on their right flanks were intravenously injected with PBS or with 6 or 18 mg/kg PEG engagers. After 5 h, the mice were intravenously administrated with free doxorubicin (3 mg/kg) or Doxisome (1 mg/kg or 3 mg/kg). This treatment was repeated once a week for a total of 4 weeks. Tumour sizes were measured every 7 days."}, "[2]": {"conditions": "SCID mice; cited from earlier work"}}}
{"smiles": "COc1cccc2c1C(=O)c1c(O)c3c(c(O)c1C2=O)C[C@@](O)(C(=O)CO)C[C@@H]3O[C@H]1C[C@H](N)[C@H](O)[C@H](C)O1", "note": "[doxorubicin]", "values": [{"measurement": "tumor growth", "setting": "[1]", "value": "suppressed tumor growth"}, {"measurement": "maximum-tolerated dose", "setting": "[2]", "value": "2.5 to 3", "unit": "mg/kg"}]}
